# Earlier results in patent EP1691200A1, “The use of BNP-type peptides and ANP-type peptides for assessing the risk of suffering from a cardiovascular complication as a consequence of volume overload” (F. HOFFMANN-LA ROCHE AG, priority 2005, dated 2006).
structure (smiles),measurement,setting,value
CS(=O)(=O)c1ccc(C2=C(c3ccccc3)C(=O)OC2)cc1 [rofecoxib],"additional cardiovascular incidents (myocardial infarction, stroke)","25 mg rofecoxib compared with a placebo, after 18 months of follow-up","16 per 1,000 treated patients"
same,blood pressure levels,"25 mg rofecoxib compared with a placebo, early post-observation phase",higher blood pressure levels
same,rise in the rate of serious thromboembolic incidents,"APPROVE study, patients without any recognisable cardiovascular risk, led to premature discontinuation",3.9 times
